The experiment concerns L1210 leukemia ip in BDF1 mice, survival T/C. Description: NCI In Vivo Anticancer Drug Screen. Data for tumor model L1210 Leukemia (intraperitoneal) in B6D2F1 (BDF1) mice. Conditions: endpoint: mean survival time, higher = longer survival. The procedure, abridged:
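Survival endpoint. Drug-treated group vs vehicle group, expressed as T divided by C. Tumor passaged by transplantation.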

Setting [1] is: dose: 100.0 mg/kg/injection, schedule: Q04DX003 (ip), vehicle: saline.
[2] abbreviates: dose: 200.0 mg/kg/injection, schedule: Q04DX003 (ip), vehicle: saline.
The mark [3] stands for this setting: dose: 400.0 mg/kg/injection, schedule: Q04DX003 (ip), vehicle: saline.
Setting [4] is: dose: 100.0 mg/kg/injection, schedule: Q01DX001 (ip), vehicle: saline.
Setting [5] is: dose: 200.0 mg/kg/injection, schedule: Q01DX001 (ip), vehicle: saline.
[6] abbreviates: dose: 400.0 mg/kg/injection, schedule: Q01DX001 (ip), vehicle: saline.
The mark [7] stands for this setting: dose: 75.0 mg/kg/injection, schedule: Q01DX001 (ip), vehicle: saline.
Where [8] appears, read: dose: 150.0 mg/kg/injection, schedule: Q01DX001 (ip), vehicle: saline.

Each structure is given as a SMILES string. Where “and” joins values, the source holds several entries; their conditions need not be identical. Identical values can stand only once. Inconclusive results and toxic doses are left out. Square brackets hold non-standard residues; d marks the D form. Peptide text beside a SMILES is read from it. Ac5c = NC1(C(=O)O)CCCC1

As to `[N-]=[N+]=NS(=O)(=O)CCc1ccccc1`, the T/C (dose: 100.0 mg/kg/injection, schedule: Q04DX003 (ip), vehicle: saline with Tween-80) was 96 % of control; the T/C (dose: 200.0 mg/kg/injection, schedule: Q04DX003 (ip), vehicle: saline with Tween-80) was 110 % of control; the T/C (dose: 400.0 mg/kg/injection, schedule: Q04DX003 (ip), vehicle: saline with Tween-80) is 98 % of control.

Turning to `Cc1nc(N)[nH]c(=O)c1CCCNc1ccc(F)cc1`, the T/C reads like this: (dose: 25.0 mg/kg/injection, schedule: Q01DX001 (ip), vehicle: saline with Tween-80) 95 % of control; (dose: 50.0 mg/kg/injection, schedule: Q01DX001 (ip), vehicle: saline with Tween-80) 93 % of control; (dose: 100.0 mg/kg/injection, schedule: Q01DX001 (ip), vehicle: saline with Tween-80) 92 % of control.

As to `NCC(=O)NC1(C(=O)O)CCCC1` (H-Gly-[Ac5c]-OH), the T/C is 104 % of control (dose: 16.0 mg/kg/injection, schedule: Q01DX Z (ip), vehicle: carboxymethylcellulose (CMC)); 109 % of control (dose: 24.0 mg/kg/injection, schedule: Q01DX Z (ip), vehicle: carboxymethylcellulose (CMC)); 103 % of control (dose: 30.0 mg/kg/injection, schedule: Q01DX Z (ip), vehicle: other); 118 % of control (dose: 36.0 mg/kg/injection, schedule: Q01DX Z (ip), vehicle: carboxymethylcellulose (CMC)); 157 % of control (dose: 54.0 mg/kg/injection, schedule: Q01DX017 (ip), vehicle: saline); 121 % of control (dose: 54.0 mg/kg/injection, schedule: Q01DX Z (ip), vehicle: saline). For the same compound, the T/C is 115 % of control (dose: 66.0 mg/kg/injection, schedule: Q01DX Z (ip), vehicle: saline); 103 % of control under setting [1]; 152 % of control (dose: 120.0 mg/kg/injection, schedule: Q01DX Z (ip), vehicle: saline); 156 % of control (dose: 150.0 mg/kg/injection, schedule: Q01DX Z (ip), vehicle: saline); 105 % of control (dose: 180.0 mg/kg/injection, schedule: Q01DX Z (ip), vehicle: carboxymethylcellulose (CMC)); 124 % of control under setting [2]. Further, the T/C was 115 % of control (dose: 225.0 mg/kg/injection, schedule: Q01DX Z (ip), vehicle: saline); 124 % of control (dose: 240.0 mg/kg/injection, schedule: Q01DX Z (ip), vehicle: other); 155 % of control under setting [3]; 88 % of control (dose: 480.0 mg/kg/injection, schedule: Q01DX Z (ip), vehicle: other).

`ClC1=C(Cl)C2(Cl)CCC1(Cl)C2(Cl)Cl`: the T/C is, setting by setting: under setting [1], 101 % of control; under setting [2], 97 % of control; under setting [3], 108 % of control.

Turning to `OCc1ccc(O)cn1`, the T/C is 97 % of control under setting [4], 87 % of control under setting [5] and 94 % of control under setting [6].

In the case of `C=CCN1C(=O)C(CCCCCCCCCCCC)C(=O)NC1=S` (centres undefined), the T/C is 101 % of control (dose: 75.0 mg/kg/injection, schedule: Q01DX001 (ip), vehicle: other); 95 % of control (dose: 150.0 mg/kg/injection, schedule: Q01DX001 (ip), vehicle: other); 90 % of control (dose: 300.0 mg/kg/injection, schedule: Q01DX001 (ip), vehicle: other).

On to `CCCCCCCCCCCCCCCCCC(=O)OCC1(COC(=O)CCCCCCCCCCCCCCCCC)COC(CCCCCCCCCCCCCCCCC)=N1`, for which the T/C (dose: 100.0 mg/kg/injection, schedule: Q01DX001 (ip), vehicle: Klucel (hydroxypropylcellulose) (HPC)) was 92 % of control; the T/C (dose: 200.0 mg/kg/injection, schedule: Q01DX001 (ip), vehicle: Klucel (hydroxypropylcellulose) (HPC)) is 95 % of control; the T/C (dose: 400.0 mg/kg/injection, schedule: Q01DX001 (ip), vehicle: Klucel (hydroxypropylcellulose) (HPC)) is 109 % of control.

On to `N=C(N)SCc1ccc(Cl)cc1N`, for which the T/C by setting is: (dose: 25.0 mg/kg/injection, schedule: Q04DX002 (ip), vehicle: Klucel (hydroxypropylcellulose) (HPC)) 97 % of control; (dose: 50.0 mg/kg/injection, schedule: Q04DX002 (ip), vehicle: Klucel (hydroxypropylcellulose) (HPC)) 102 % of control; (dose: 100.0 mg/kg/injection, schedule: Q04DX002 (ip), vehicle: Klucel (hydroxypropylcellulose) (HPC)) 103 % of control.

On to `O=S(=O)(C/C=C/COc1ccccc1)c1ccc2ccccc2c1`, for which the T/C runs as follows: (dose: 75.0 mg/kg/injection, schedule: Q01DX001 (ip), vehicle: Klucel (hydroxypropylcellulose) (HPC)) 104 % of control; (dose: 75.0 mg/kg/injection, schedule: Q01DX009 (ip), vehicle: Klucel (hydroxypropylcellulose) (HPC)) 102 % of control; (dose: 150.0 mg/kg/injection, schedule: Q01DX001 (ip), vehicle: Klucel (hydroxypropylcellulose) (HPC)) 94 % of control; (dose: 150.0 mg/kg/injection, schedule: Q01DX009 (ip), vehicle: Klucel (hydroxypropylcellulose) (HPC)) 96 % of control; (dose: 300.0 mg/kg/injection, schedule: Q01DX001 (ip), vehicle: Klucel (hydroxypropylcellulose) (HPC)) 113 % of control; (dose: 300.0 mg/kg/injection, schedule: Q01DX009 (ip), vehicle: Klucel (hydroxypropylcellulose) (HPC)) 98 % of control.

`O=C(Nc1ncn[nH]1)C(F)(F)F`: the T/C is 103 % of control under setting [4], 103 % of control under setting [5] and 92 % of control under setting [6].

As to `O=C(Nc1ccc(Cl)cc1Cl)c1ccc2c(c1)C(=O)OC2=O`, the T/C (dose: 100.0 mg/kg/injection, schedule: Q01DX009 (ip), vehicle: saline with Tween-80) was 90 % of control; the T/C (dose: 200.0 mg/kg/injection, schedule: Q01DX009 (ip), vehicle: saline with Tween-80) was 92 % of control; the T/C (dose: 400.0 mg/kg/injection, schedule: Q01DX009 (ip), vehicle: saline with Tween-80) is 92 % of control.

Turning to `CCOC(=O)c1c(OC)cc2n(c1=O)Cc1cc3ccccc3nc1-2`, the T/C by setting is: (dose: 150.0 mg/kg/injection, schedule: Q01DX009 (ip), vehicle: saline with Tween-80) 86 % of control; (dose: 225.0 mg/kg/injection, schedule: Q01DX009 (ip), vehicle: saline with Tween-80) 89 % of control; (dose: 335.0 mg/kg/injection, schedule: Q01DX009 (ip), vehicle: saline with Tween-80) 89 % of control.

Take `NCCCP(c1ccccc1)c1ccccc1`: the T/C by setting is: under setting [7], 105 % of control; under setting [8], 92 % of control.

As to `O=[N+]([O-])c1ccc(N=Cc2ccccc2O)c(O)c1`, the T/C was 95 % of control (dose: 100.0 mg/kg/injection, schedule: Q01DX001 (ip), vehicle: carboxymethylcellulose (CMC)); 104 % of control (dose: 200.0 mg/kg/injection, schedule: Q01DX001 (ip), vehicle: carboxymethylcellulose (CMC)); 94 % of control (dose: 400.0 mg/kg/injection, schedule: Q01DX001 (ip), vehicle: carboxymethylcellulose (CMC)).

As to `O=C(O)CNC(=S)SCc1ccccc1`, the T/C is 97 % of control (dose: 100.0 mg/kg/injection, schedule: Q04DX002 (ip), vehicle: gum acacia); 87 % of control (dose: 200.0 mg/kg/injection, schedule: Q04DX002 (ip), vehicle: gum acacia); 97 % of control (dose: 400.0 mg/kg/injection, schedule: Q04DX002 (ip), vehicle: gum acacia).

For `CN(C)N=Nc1ccccc1C#N`, the T/C is 103 % of control (dose: 50.0 mg/kg/injection, schedule: Q01DX009 (ip), vehicle: Klucel (hydroxypropylcellulose) (HPC)); 108 % of control (dose: 100.0 mg/kg/injection, schedule: Q01DX009 (ip), vehicle: Klucel (hydroxypropylcellulose) (HPC)); 112 % of control (dose: 100.0 mg/kg/injection, schedule: Q04DX003 (ip), vehicle: Klucel (hydroxypropylcellulose) (HPC)); 113 % of control (dose: 200.0 mg/kg/injection, schedule: Q01DX009 (ip), vehicle: Klucel (hydroxypropylcellulose) (HPC)); 113 % of control (dose: 200.0 mg/kg/injection, schedule: Q04DX003 (ip), vehicle: Klucel (hydroxypropylcellulose) (HPC)); 105 % of control and 120 % of control (dose: 400.0 mg/kg/injection, schedule: Q01DX009 (ip), vehicle: Klucel (hydroxypropylcellulose) (HPC)). For the same compound, the T/C (dose: 400.0 mg/kg/injection, schedule: Q04DX003 (ip), vehicle: Klucel (hydroxypropylcellulose) (HPC)) was 107 % of control.

As for `CCN(C(C)=O)c1ccccc1C#N`, the T/C under setting [7] is 107 % of control and the T/C under setting [8] is 107 % of control.

Source of the values: PubChem BioAssay AID248 (DTP/NCI, 2004).
